Assays:
OVCAR-8 [1] = test: Anticancer activity against human OVCAR8 cells after 96 hrs by SRB assay; type: functional, cell-based; details: OVCAR-8, 96 h
[2] = Anticancer activity against mouse B16-F1 cells after 96 hrs by SRB assay; type: functional, cell-based; details: B16-F1, 96 h
DU-145 = test: Anticancer activity against human DU145 cells after 96 hrs by SRB assay; type: functional, cell-based; details: DU-145, 96 h
PC-3 = test: Anticancer activity against human PC3 cells after 96 hrs by SRB assay; type: functional, cell-based; details: PC-3, 96 h
LNCaP = test: Anticancer activity against human LNCAP cells after 96 hrs by SRB assay; type: functional, cell-based
PPC-1 = test: Anticancer activity against human PPC1 cells after 96 hrs by SRB assay; type: functional, cell-based; details: PPC-1, 96 h
NCI/ADR-RES = test: Anticancer activity against P-gp overexpressing human NCI/ADR-RES cells after 96 hrs by SRB assay; type: functional, cell-based
OVCAR-8 [3] = test: Resistance factor, ratio of IC50 for human NCI-ADR-RES cells to IC50 for drug-sensitive human OVCAR8 cells; type: functional
A-375 = test: Anticancer activity against human A375 cells after 96 hrs by SRB assay; type: functional, cell-based; details: A-375, 96 h
[4] = Anticancer activity against human WM164 cells after 96 hrs by SRB assay; type: functional, cell-based; details: WM164, 96 h
Liver microsomes = test: Half life in human liver microsomes; type: ADME, Microsome
[5] = AUC in Sprague-Dawley rat at […], iv by LC-MS/MS analysis; type: ADME, organism-based; set-up: dose 2.5 mg/kg, route intravenous; details: plasma
[6] = AUC in Sprague-Dawley rat at 10 mg/kg, po by LC-MS/MS analysis; type: ADME, organism-based; set-up: dose 10 mg/kg, route oral; details: plasma
[7] = Cmax in Sprague-Dawley rat at […], iv by LC-MS/MS analysis; type: ADME, organism-based; set-up: dose 2.5 mg/kg, route intravenous; details: in vivo
[8] = AUC in Sprague-Dawley rat at 4 mg/kg, po by LC-MS/MS analysis; type: ADME, organism-based; set-up: dose 4 mg/kg, route oral; details: plasma
[9] = Cmax in Sprague-Dawley rat at 4 mg/kg, po by LC-MS/MS analysis; type: ADME, organism-based; set-up: dose 4 mg/kg, route oral; details: in vivo
[10] = Aqueous solubility of the compound in PBS at 35 ug/ml and pH 7.4 by LC/MS/MS analysis; type: physicochemical; details: buffer
Rattus norvegicus = test: Oral bioavailability in Sprague-Dawley rat at 4 mg/kg by LC-MS/MS analysis; type: ADME, organism-based; details: in vivo
[11] = AUC in Sprague-Dawley rat at 5 mg/kg, iv by LC-MS/MS analysis; type: ADME, organism-based; set-up: dose 5 mg/kg, route intravenous; details: plasma

Structure (SMILES) | IC50 (OVCAR-8 [1]) | IC50 [2] | IC50 (DU-145) | IC50 (PC-3) | IC50 (LNCaP) | IC50 (PPC-1) | IC50 (NCI/ADR-RES) | Ratio IC50 (OVCAR-8 [3]) | IC50 (A-375) | further results
COc1cc(C(=O)c2csc(Nc3ccccc3)n2)cc(OC)c1OC | 46 nM | 65 nM | 70 nM | 57 nM | 51 nM | 54 nM | 27 nM | 0.6 | – | –
COc1cc(C(=O)c2csc(Nc3ccc(C)cc3)n2)cc(OC)c1OC | 28 nM | – | – | – | – | – | 21 nM | 0.8 | – | –
COc1cc(C(=O)c2csc(Nc3ccc(F)cc3)n2)cc(OC)c1OC | 44 nM | – | 63 nM | – | 41 nM | – | 25 nM | – | – | –
COc1cc(C(=O)c2csc(-c3ccc4[nH]ccc4c3)n2)cc(OC)c1OC | 10 nM | 25 nM | 13 nM | 7 nM | – | 8 nM | 4 nM | 0.4 | 8 nM | –
COc1cc(C(=O)c2cccc(-c3ccccc3)n2)cc(OC)c1OC | 33 nM | 39 nM | – | – | 27 nM | 25 nM | 13 nM | 0.4 | 30 nM | –
COc1cc(/C(=N\C#N)c2csc(-c3ccccc3)n2)cc(OC)c1OC | 34 nM | 60 nM | 42 nM | 27 nM | 23 nM | 20 nM | 14 nM | 0.4 | 28 nM | IC50 [4]: 27 nM; t1/2 (Liver microsomes): < 5 min
CC(=O)O[C@H]1C(=O)[C@@]2(C)[C@H]([C@H](OC(=O)c3ccccc3)[C@]3(O)C[C@H](OC(=O)[C@H](O)[C@@H](NC(=O)c4ccccc4)c4ccccc4)C(C)=C1C3(C)C)[C@]1(OC(C)=O)CO[C@@H]1C[C@@H]2O [PACLITAXEL] | 4.7 nM | – | – | – | – | – | – | – | – | –
COc1cc(C(=O)c2csc(-c3ccccc3)n2)cc(OC)c1OC | 35 nM | 55 nM | – | – | – | – | – | – | – | IC50 [4]: 64 nM; AUC [5]: 4650 ng·h/mL; AUC [6]: 617 ng·h/mL
COc1cc(C(=O)c2csc(-c3ccc(CN)cc3)n2)cc(OC)c1OC.Cl | 26 nM | 38 nM | – | 80 nM | 13 nM | 34 nM | 11 nM | – | 41 nM | AUC [5]: 2320 ng·h/mL; Cmax [7]: 3790 ng/mL; AUC [8]: 6.67 ng·h/mL; Cmax [9]: 3.2 ng/mL; solubility [10]: soluble; F (Rattus norvegicus): 0.2%
COc1cc(C(=O)c2csc(Nc3ccccc3)n2)cc(OC)c1OC.Cl | – | – | – | – | – | – | – | – | – | AUC [6]: 1080 ng·h/mL; AUC [11]: 4930 ng·h/mL
COc1cc(C(=O)c2csc(Nc3ccc(F)cc3)n2)cc(OC)c1OC.Cl | – | – | – | – | – | – | – | – | – | AUC [6]: 2670 ng·h/mL; AUC [11]: 6350 ng·h/mL

From ChEMBL document CHEMBL1828586 (J Med Chem, 2011)
